The text below walks through data of US20250326771A1, “PIPERAZINE DERIVATIVES USEFUL IN HIV THERAPY” (VIIV HEALTHCARE COMPANY, priority 2022, published 2025).

In experiment [1] the test system is Jurkat HIV-luciferase clones. The experiment can be described thus: Jurkat latency reversal assay. The format is cell-based. The note with it: Homo sapiens, 48 h; Jurkat latency reversal assay potency; read-out: Jurkat pEC50 (converted). Summed up: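 Three pooled Jurkat reporter clones, each with one or two integrated HIV-luciferase proviruses, 5,000 cells/well; duplicate 14-point titrations starting at 10 μM; 48 h, 37° C, then Steady-Glo luminescence; four-parameter logistic analysis yields EC50 and percent maximal activation against DMSO vehicle.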

The next experiment concerns the target cIAP1-BIR3 (Homo sapiens (Human), UniProt Q13490). Kind of experiment: BIR binding assay (FRET competition), cIAP1 BIR3. The note with it: for cIAP1 BIR3 vs BIR2 separation window: fold separation (FS) for cIAP1. Put shortly:
(§1)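 Compounds tested as 15-point, 3-fold series displacing 200 nM AlexaFluor647-labelled SMAC peptide from His-tagged BIR domain (cIAP1-BIR3 50 nM; cIAP1-BIR2 and cIAP2-BIR2 325 nM; XIAP-BIR3 100 nM), pH 7.4, 60 min. Eu-W1024 (2 nM) added 30 min; emission ratio fitted for IC50.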

The target in a further experiment is cIAP1-BIR2 (Homo sapiens (Human), UniProt Q13490). The experiment can be described thus: BIR binding assay (FRET competition), cIAP1 BIR2. Put shortly: as §1
The target in the next experiment is cIAP2-BIR3 (Homo sapiens (Human), UniProt Q13489). Kind of experiment: BIR binding assay (FRET competition), cIAP2 BIR3. The note with it: for cIAP2 BIR3 vs BIR2 separation window: fold separation (FS) for cIAP2.
A further experiment has as its target cIAP2-BIR2 (Homo sapiens (Human), UniProt Q13489). Kind of experiment: BIR binding assay (FRET competition), cIAP2 BIR2. Summed up:
as §1

Another experiment concerns the target XIAP-BIR3 (Homo sapiens (Human), UniProt P98170). The experiment can be described thus: BIR binding assay (FRET competition), XIAP BIR3. To be noted: for XIAP BIR3 vs BIR2 separation window: fold separation (FS) for XIAP. Put shortly: as §1
Another experiment addresses XIAP-BIR2 (Homo sapiens (Human), UniProt P98170). Kind of experiment: BIR binding assay (FRET competition), XIAP BIR2. Summed up: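 Competitive TR-FRET used His-tagged XIAP-BIR2 (200 nM) and 200 nM AlexaFluor647-labelled AVPIAQKSE SMAC peptide in HEPES buffer pH 7.4 with CHAPS, glycerol and DTT, incubated 60 min before 30 min with 2 nM Eu-W1024. The 615/665 nm ratio from a 15-point, 3-fold series was fit with a four-parameter model for IC50/pIC50.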

Setting [2] is: FRET competition binding, read-out: XIAP BIR2 (pIC50) (converted).

Like-named read-outs stand apart in the source and are kept apart here.

Chain of XIAP-BIR2 (P98170 124-240): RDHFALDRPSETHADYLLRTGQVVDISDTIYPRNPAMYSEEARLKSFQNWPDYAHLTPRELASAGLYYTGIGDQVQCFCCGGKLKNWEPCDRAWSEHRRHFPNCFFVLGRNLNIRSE
Chain of cIAP2-BIR3 (Q13489 238-349): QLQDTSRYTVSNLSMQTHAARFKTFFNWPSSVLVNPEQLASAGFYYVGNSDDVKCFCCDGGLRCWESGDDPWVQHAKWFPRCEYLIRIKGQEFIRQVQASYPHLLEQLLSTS
Chain of cIAP1-BIR2 (Q13490 173-257): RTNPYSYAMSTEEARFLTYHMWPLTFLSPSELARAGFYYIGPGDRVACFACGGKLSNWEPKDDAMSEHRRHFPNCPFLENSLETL
Chain of XIAP-BIR3 (P98170 241-356): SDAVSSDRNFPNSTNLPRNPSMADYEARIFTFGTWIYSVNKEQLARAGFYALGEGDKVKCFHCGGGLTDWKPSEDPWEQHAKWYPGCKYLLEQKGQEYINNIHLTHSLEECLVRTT
Chain of cIAP2-BIR2 (Q13489 158-242): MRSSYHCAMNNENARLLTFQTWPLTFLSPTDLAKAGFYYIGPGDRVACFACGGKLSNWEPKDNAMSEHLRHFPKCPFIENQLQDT
Chain of cIAP1-BIR3 (Q13490 253-363): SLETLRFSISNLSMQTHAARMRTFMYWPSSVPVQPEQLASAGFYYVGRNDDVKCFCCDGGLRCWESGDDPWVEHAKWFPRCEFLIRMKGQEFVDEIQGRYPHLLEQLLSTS

Turning to `C[C@@H]1CN(CC(=O)N2CC(C)(C)c3c2cc(Cc2ccc(F)cc2)c(=O)n3C)[C@@H](CN2CCO[C@H](COCc3ccc(COC[C@@H]4CN(C[C@H]5CN[C@H](C)CN5CC(=O)N5CC(C)(C)c6c5cc(Cc5ccc(F)cc5)c(=O)n6C)CCO4)cc3)C2)CN1` [Example 117, 1,1′-(2,2′-((3R,3′R,6R,6′R)-(((2S,2'S)-(((1,4-phenylenebis(methylene))bis(oxy))bis(methylene))bis(morpholine-2,4-diyl))bis(methylene))bis(3-methylpiperazine-6,1-diyl))bis(acetyl))bis(6-(4-fluorobenzyl)-3,3,4-trimethyl-1,2,3,4-tetrahydro-5H-pyrrolo[3,2-b]pyridin-5-one)], the EC50 in experiment [1] was 63.1 to 316 nM. Moreover, the IC50 on cIAP1-BIR3 was 15.8 to 31.6 nM; at cIAP1-BIR2 it was 3160 to 10000 nM; on cIAP2-BIR3, 15.8 to 31.6 nM; on cIAP2-BIR2, 3160 to 10000 nM; at XIAP-BIR3, 31.6 to 501 nM; at XIAP-BIR2 (setting [2]), 10000 to 51300 nM. Also, the “cIAP1 BIR3 vs BIR2 separation window” value on cIAP1-BIR3 was “+++ (10,000>FS>1,000)”. On cIAP2-BIR3, the “cIAP2 BIR3 vs BIR2 separation window” value was “+++ (10,000>FS>1,000)”. Also, the “XIAP BIR3 vs BIR2 separation window” value at XIAP-BIR3 is given as “++++ (FS>10,000)”.
`C[C@@H]1CN(CC(=O)N2CC(C)(C)c3[nH]c(=O)c(Cc4ccc(F)cc4)cc32)[C@@H](CN2CCO[C@H](C(=O)N3CCN(C(=O)[C@@H]4CN(C[C@H]5CN[C@H](C)CN5CC(=O)N5CC(C)(C)c6[nH]c(=O)c(Cc7ccc(F)cc7)cc65)CCO4)CC3)C2)CN1` [Example 118, 1,1′-(2,2′-((3R,3′R,6R,6′R)-(((2S,2'S)-(piperazine-1,4-dicarbonyl)bis(morpholine-2,4-diyl))bis(methylene))bis(3-methylpiperazine-6,1-diyl))bis(acetyl))bis(6-(4-fluorobenzyl)-3,3-dimethyl-1,2,3,4-tetrahydro-5H-pyrrolo[3,2-b]pyridin-5-one)]: the EC50 in experiment [1] was 12.6 to 63.1 nM. For the same compound, the IC50 on cIAP1-BIR3 lay in the range of 7.94 to 15.8 nM; at cIAP1-BIR2, 1000 to 3160 nM; on cIAP2-BIR3, 7.94 to 15.8 nM; at cIAP2-BIR2 it was 1000 to 3160 nM; on XIAP-BIR3, 7.94 to 15.8 nM; at XIAP-BIR2, 10000 to 51300 nM. The “cIAP1 BIR3 vs BIR2 separation window” value at cIAP1-BIR3 is “+++ (10,000>FS>1,000)”. Besides, the “cIAP2 BIR3 vs BIR2 separation window” value on cIAP2-BIR3 is given as “+++ (10,000>FS>1,000)”. Also, the “XIAP BIR3 vs BIR2 separation window” value on XIAP-BIR3 is on record as “++++ (FS>10,000)”.
For the compound `C[C@@H]1CN(CC(=O)N2CC(C)(C)c3[nH]c(=O)c(Cc4ccc(F)cc4)cc32)[C@@H](CN2CCO[C@H](C(=O)NCCOCCOCCOCCNC(=O)[C@@H]3CN(C[C@H]4CN[C@H](C)CN4CC(=O)N4CC(C)(C)c5[nH]c(=O)c(Cc6ccc(F)cc6)cc54)CCO3)C2)CN1` [Example 121, (2S,2'S)-N,N′-(((oxybis(ethane-2,1-diyl))bis(oxy))bis(ethane-2,1-diyl))bis(4-(((2R,5R)-1-(2-(6-(4-fluorobenzyl)-3,3-dimethyl-5-oxo-2,3,4,5-tetrahydro-1H-pyrrolo[3,2-b]pyridin-1-yl)-2-oxoethyl)-5-methylpiperazin-2-yl)methyl)morpholine-2-carboxamide)], the EC50 in experiment [1] is 63.1 to 316 nM. The IC50 on cIAP1-BIR3 is 7.94 to 15.8 nM; at cIAP1-BIR2, 1000 to 3160 nM; on cIAP2-BIR3, 7.94 to 15.8 nM; on cIAP2-BIR2, 1000 to 3160 nM; on XIAP-BIR3 it was 7.94 to 15.8 nM; on XIAP-BIR2 (setting [2]) it was 10000 to 51300 nM. The “cIAP1 BIR3 vs BIR2 separation window” value on cIAP1-BIR3 is listed as “+++ (10,000>FS>1,000)”. On cIAP2-BIR3, the “cIAP2 BIR3 vs BIR2 separation window” value is recorded as “+++ (10,000>FS>1,000)”. Besides, the “XIAP BIR3 vs BIR2 separation window” value on XIAP-BIR3 is on record as “++++ (FS>10,000)”.
Take `C[C@@H]1CN(CC(=O)N2CC(C)(C)c3[nH]c(=O)c(Cc4ccc(F)cc4)cc32)[C@@H](CN2CCO[C@H](C(=O)NCc3cccc(CNC(=O)[C@@H]4CN(C[C@H]5CN[C@H](C)CN5CC(=O)N5CC(C)(C)c6[nH]c(=O)c(Cc7ccc(F)cc7)cc65)CCO4)c3)C2)CN1` [Example 122, (2S,2'S)-N,N′-(1,3-phenylenebis(methylene))bis(4-(((2R,5R)-1-(2-(6-(4-fluorobenzyl)-3,3-dimethyl-5-oxo-2,3,4,5-tetrahydro-1H-pyrrolo[3,2-b]pyridin-1-yl)-2-oxoethyl)-5-methylpiperazin-2-yl)methyl)morpholine-2-carboxamide)]: the EC50 in experiment [1] was 12.6 to 63.1 nM. Also, the IC50 was 7.94 to 15.8 nM at cIAP1-BIR3; 1000 to 3160 nM on cIAP1-BIR2; 7.94 to 15.8 nM at cIAP2-BIR3; 1000 to 3160 nM on cIAP2-BIR2; 15.8 to 31.6 nM at XIAP-BIR3; 10000 to 51300 nM at XIAP-BIR2 (setting [2]). At cIAP1-BIR3, the “cIAP1 BIR3 vs BIR2 separation window” value is on record as “++ (1,000>FS>100)”. Also, the “cIAP2 BIR3 vs BIR2 separation window” value on cIAP2-BIR3 is listed as “+++ (10,000>FS>1,000)”. Also, at XIAP-BIR3, the “XIAP BIR3 vs BIR2 separation window” value is listed as “++++ (FS>10,000)”.
For the compound `C[C@@H]1CN(CC(=O)N2CC(C)(C)c3[nH]c(=O)c(Cc4ccc(F)cc4)cc32)[C@@H](CN2CCO[C@H](C(=O)NCCCN3CCN(CCCNC(=O)[C@@H]4CN(C[C@H]5CN[C@H](C)CN5CC(=O)N5CC(C)(C)c6[nH]c(=O)c(Cc7ccc(F)cc7)cc65)CCO4)CC3)C2)CN1` [Example 123, (2S,2'S)-N,N′-(piperazine-1,4-diylbis(propane-3,1-diyl))bis(4-(((2R,5R)-1-(2-(6-(4-fluorobenzyl)-3,3-dimethyl-5-oxo-2,3,4,5-tetrahydro-1H-pyrrolo[3,2-b]pyridin-1-yl)-2-oxoethyl)-5-methylpiperazin-2-yl)methyl)morpholine-2-carboxamide)], the EC50 in experiment [1] is 316 to 3310 nM. Further, the IC50 on cIAP1-BIR3 is 7.94 to 15.8 nM; at cIAP1-BIR2 it was 3160 to 10000 nM; on cIAP2-BIR3, 7.94 to 15.8 nM; on cIAP2-BIR2, 3160 to 10000 nM; at XIAP-BIR3, 7.94 to 15.8 nM; on XIAP-BIR2 (setting [2]), 10000 to 51300 nM. In addition, the “cIAP1 BIR3 vs BIR2 separation window” value on cIAP1-BIR3 was “+++ (10,000>FS>1,000)”. Moreover, the “cIAP2 BIR3 vs BIR2 separation window” value at cIAP2-BIR3 is given as “+++ (10,000>FS>1,000)”. Further, the “XIAP BIR3 vs BIR2 separation window” value at XIAP-BIR3 is listed as “++++ (FS>10,000)”.
With `C[C@@H]1CN(CC(=O)N2CC(C)(C)c3[nH]c(=O)c(Cc4ccc(F)cc4)cc32)[C@@H](CN2CCO[C@H](C(=O)N(C)CCCCCCN(C)C(=O)[C@@H]3CN(C[C@H]4CN[C@H](C)CN4CC(=O)N4CC(C)(C)c5[nH]c(=O)c(Cc6ccc(F)cc6)cc54)CCO3)C2)CN1` [Example 124, (2S,2'S)-N,N′-(hexane-1,6-diyl)bis(4-(((2R,5R)-1-(2-(6-(4-fluorobenzyl)-3,3-dimethyl-5-oxo-2,3,4,5-tetrahydro-1H-pyrrolo[3,2-b]pyridin-1-yl)-2-oxoethyl)-5-methylpiperazin-2-yl)methyl)-N-methylmorpholine-2-carboxamide)], the EC50 in experiment [1] was 12.6 to 63.1 nM. The IC50 at cIAP1-BIR3 was 7.94 to 15.8 nM; on cIAP1-BIR2, 1000 to 3160 nM; at cIAP2-BIR3, 7.94 to 15.8 nM; at cIAP2-BIR2, 1000 to 3160 nM; at XIAP-BIR3 it was 7.94 to 15.8 nM; at XIAP-BIR2 (setting [2]) it was 10000 to 51300 nM. In addition, the “cIAP1 BIR3 vs BIR2 separation window” value on cIAP1-BIR3 is “+++ (10,000>FS>1,000)”. Further, the “cIAP2 BIR3 vs BIR2 separation window” value at cIAP2-BIR3 is listed as “+++ (10,000>FS>1,000)”. In addition, the “XIAP BIR3 vs BIR2 separation window” value at XIAP-BIR3 is listed as “++++ (FS>10,000)”.
`C[C@@H]1CN(CC(=O)N2CC(C)(C)c3[nH]c(=O)c(Cc4ccc(F)cc4)cc32)[C@@H](CN2CCO[C@H](C(=O)NCCCNC(=O)[C@@H]3CN(C[C@H]4CN[C@H](C)CN4CC(=O)N4CC(C)(C)c5[nH]c(=O)c(Cc6ccc(F)cc6)cc54)CCO3)C2)CN1` [Example 125, (2S,2'S)-N,N′-(Propane-1,3-diyl)bis(4-(((2R,5R)-1-(2-(6-(4-fluorobenzyl)-3,3-dimethyl-5-oxo-2,3,4,5-tetrahydro-1H-pyrrolo[3,2-b]pyridin-1-yl)-2-oxoethyl)-5-methylpiperazin-2-yl)methyl)morpholine-2-carboxamide)]: the EC50 in experiment [1] is 63.1 to 316 nM. In addition, the IC50 is 7.94 to 15.8 nM on cIAP1-BIR3; 1000 to 3160 nM on cIAP1-BIR2; 7.94 to 15.8 nM on cIAP2-BIR3; 3160 to 10000 nM on cIAP2-BIR2; 15.8 to 31.6 nM on XIAP-BIR3; 10000 to 51300 nM at XIAP-BIR2 (setting [2]). Moreover, the “cIAP1 BIR3 vs BIR2 separation window” value at cIAP1-BIR3 is “+++ (10,000>FS>1,000)”. The “cIAP2 BIR3 vs BIR2 separation window” value on cIAP2-BIR3 was “+++ (10,000>FS>1,000)”. Also, the “XIAP BIR3 vs BIR2 separation window” value on XIAP-BIR3 is reported as “++++ (FS>10,000)”.
